This passage reports TGI results from PubChem BioAssay (NCI).

Structures are written as SMILES.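 Each compound was tested at five concentrations against cells in 96-well plates for 48 hours. At the TGI there is no net growth.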 Some results are limits rather than exact numbers.

Holding throughout (test): DTP human tumour cell line panel, 48 h
Experiment [1] relates to A498 renal.
For experiment [2], the system named is BT-549 breast.
The subject of experiment [3] is CAKI-1 renal.
Experiment [4] relates to COLO 205 colon.
Experiment [5] relates to HCC-2998 colon.
In experiment [6] the test system is HOP-92 NSCLC.
Experiment [7] concerns HT29 colon.
Experiment [8] relates to K-562 leukemia.
For experiment [9], the system named is MALME-3M melanoma.
Experiment [10] has as its system MDA-MB-231 breast.
Experiment [11] has as its system NCI-H226 lung.
The subject of experiment [12] is PC-3 prostate.
For experiment [13], the system named is SF-539 CNS.
Experiment [14] relates to SK-MEL-5 melanoma.
Experiment [15] has as its system SNB-19 CNS.
For experiment [16], the system named is SR leukemia.

On to `N#CC(=C1CCN(CCCC(=O)c2ccc(F)cc2)CC1)c1ccccc1`, for which the TGI in experiment [1], in experiment [2], in [3], in [4], in [5] and in [6] was over 100 µM in each case. Further, the TGI in [7], in experiment [8], in [9], in experiment [10], in [11] and in experiment [12] was over 100 µM in each case. Besides, the TGI in experiment [13], in [14], in experiment [15] and in [16] was over 100 µM in each case.

Turning to `COc1cc2c(cc1OCCCCN1C(=O)c3cccc4cccc(c34)C1=O)N=C[C@@H]1CCCN1C2=O`, the TGI (commonly the concentration at which net growth stops) was 13.9 µM in experiment [1]; 28.7 µM in experiment [2]; 10.1 µM in experiment [3]; 8.21 µM in [4]; 20.5 µM in experiment [5]; over 45.8 µM in [6]. Further, the total growth inhibition concentration (TGI) is 18.8 µM in experiment [7]; over 100 µM in experiment [8]; 16.1 µM in experiment [9]; 29.4 µM in [10]; 23.5 µM in experiment [11]; over 70.3 µM in experiment [12]. For the same compound, the TGI in experiment [13] was 7.1 µM; in experiment [14], 4.42 µM; in experiment [15] it was over 52.3 µM; in experiment [16], over 100 µM.

Consider `Clc1cc(Cl)cc(C=NC23CC4CC(CC(C4)C2)C3)c1`, for which the TGI in [1], in experiment [2], in experiment [3], in experiment [4], in experiment [5] and in [6] was over 10 µM in each case. Also, the concentration for total growth inhibition (TGI) in experiment [7], in [8], in [9], in [10], in experiment [11] and in experiment [12] was over 10 µM each time. Further, the concentration for total growth inhibition (TGI) in [13], in experiment [14], in [15] and in experiment [16] was over 10 µM throughout.

As for `Cc1cc2c(cc1Cl)S(=O)(=O)OC(c1ccc([N+](=O)[O-])cc1)=N2`, the TGI in experiment [1], in [2], in experiment [3], in experiment [4], in experiment [5] and in experiment [6] was over 100 µM throughout. Further, the TGI in [7], in experiment [8], in [9], in experiment [10], in [11] and in [12] was over 100 µM throughout. Moreover, the TGI in experiment [13], in experiment [14], in experiment [15] and in [16] was over 100 µM throughout.

On to `CCOC(=O)c1cn2c(n1)sc1c(Cl)c(Cl)ccc12`, for which the TGI was over 100 µM in experiment [1]; over 100 µM in experiment [2]; 65.3 µM in experiment [3]; 19.1 µM in experiment [4]; 98 µM in [5]; over 100 µM in [6]. The TGI is over 45.6 µM in [7]; over 46.9 µM in experiment [8]; 8.92 µM in [9]; over 100 µM in experiment [10]; 51.6 µM in experiment [11]; over 100 µM in experiment [12]. Moreover, the TGI was 21.4 µM in experiment [13], 65.7 µM in [14], 98.9 µM in experiment [15] and over 55.2 µM in experiment [16].

`O=c1c2nc3ccccc3c(=O)n2ncn1-c1ccccc1Cl`: the TGI in experiment [1], in [2], in experiment [3], in experiment [4], in experiment [5] and in experiment [6] was over 100 µM each time. Also, the total growth inhibition concentration (TGI) in experiment [7], in experiment [8], in [9], in experiment [10], in [11] and in experiment [12] was over 100 µM throughout. For the same compound, the TGI in experiment [13], in experiment [14], in experiment [15] and in experiment [16] was over 100 µM throughout.

For `Cc1cn(C2CC(O)C(COC(=O)NCCC(F)(F)C(F)(F)C(F)(F)C(F)(F)F)O2)c(=O)[nH]c1=O` (configuration not stated), the TGI in [1], in experiment [2], in experiment [3], in experiment [4], in [5] and in experiment [6] was over 100 µM each time. In addition, the TGI in experiment [7], in experiment [8], in [9], in experiment [10], in experiment [11] and in experiment [12] was over 100 µM in each case. Moreover, the TGI in experiment [13], in experiment [14], in experiment [15] and in experiment [16] was over 100 µM in each case.

As to `COc1cc(-c2cc(-c3ccccc3)nc(-c3c(OC)ccc4c(C)cc(=O)oc34)c2)cc(OC)c1OC`, the TGI in [1], in experiment [2], in [3], in experiment [4], in experiment [5] and in [6] was over 100 µM in each case. The TGI in experiment [7], in experiment [8], in experiment [9], in experiment [10], in [11] and in experiment [12] was over 100 µM each time. In addition, the TGI in experiment [13], in [14], in [15] and in experiment [16] was over 100 µM throughout.

Consider `COC(=O)C1CN=CN1CCc1ccccc1` (configuration not stated), for which the TGI in [1], in experiment [2], in experiment [3], in experiment [4], in experiment [5] and in [6] was over 100 µM throughout. Also, the TGI in experiment [7], in experiment [8], in experiment [9], in experiment [10], in experiment [11] and in experiment [12] was over 100 µM throughout. In addition, the TGI in [13], in [14], in [15] and in [16] was over 100 µM each time.

Regarding `C[C@H](NC(=O)c1ccc(CNC(=O)/C=C/c2cccc(Oc3ccccc3)c2)cc1)c1ccccc1`, the TGI in [1] was over 100 µM; in experiment [2] it was over 100 µM; in [3], 59.5 µM; in [4], over 100 µM; in [5], over 100 µM; in experiment [6] it was over 100 µM. Also, the TGI in experiment [7], in [8], in [9], in experiment [10], in [11] and in experiment [12] was over 100 µM throughout. Further, the TGI in experiment [13] is 67.8 µM; in experiment [14], over 100 µM; in [15], over 100 µM; in experiment [16] it was over 100 µM.

For the compound `Cc1cccc(CP(Cc2cccc(C)c2)CC2(Cp3c4ccccc4c4ccccc43)COC2)c1`, the TGI in experiment [1] is over 100 µM; in [2] it was over 100 µM; in experiment [3], over 76.5 µM; in [4], 2.96 µM; in experiment [5], over 100 µM; in experiment [6], over 100 µM. Further, the TGI is over 100 µM in [7]; over 100 µM in experiment [8]; over 83.3 µM in experiment [9]; over 37 µM in experiment [10]; over 100 µM in [11]; over 100 µM in experiment [12]. Further, the TGI was over 100 µM in experiment [13], 13.4 µM in experiment [14], over 31.6 µM in experiment [15] and over 94.4 µM in experiment [16].

For the compound `Brc1cc(CCOC2CCCCO2)c(-c2sccc2CCOC2CCCCO2)s1` (configuration not stated), the TGI in [1], in [2], in [3], in [4], in experiment [5] and in experiment [6] was over 100 µM each time. The TGI was over 100 µM in [7]; over 31.6 µM in [8]; 87.7 µM in experiment [9]; over 100 µM in experiment [10]; over 100 µM in [11]; over 100 µM in [12]. For the same compound, the TGI is over 100 µM in experiment [13], over 100 µM in experiment [14], over 100 µM in [15] and 49.1 µM in [16].
